Assay results published in US9931328B2, “Topical retinoid compositions” (DR. REDDY'S LABORATORIES, LTD., priority 2015, dated 2018).

Experiments:
[1] = Multiple dose bioavailability study versus TAZORAC 0.1% cream; format: in vivo, healthy male subjects; conditions: after topical application of test or reference product
Protocol: The study was a single-center, randomized, multiple dose, laboratory-blinded, open-label, 3-arm, parallel design in healthy male subjects. The following investigational products were to be administered: 1) Test product: composition of example 1 (tazarotene 0.1%) and 2) reference: TAZORAC cream 0.1%. Following were treatment arms: 1) Treatment 1: Test product applied twice daily, in the morning and evening, 12 hours apart; 2) Treatment 2: Test product applied once daily, in the morning; and 3) Treatment 3: Reference product applied once daily, in the morning. For each study arm (n=16), approximately 5 g of the Test or Reference product was to be applied to the subjects face, neck, shoulders, upper chest and upper back (total approximately equivalent to 15% body surface area (BSA)) over 14 consecutive days (Days 1 to 14). Blood sample were collected time to time as per the schedule of the study.

[2] = Excipients compatibility study with tazarotene; format: physicochemical
Protocol: Excipient compatibility study for tazarotene was carried out with various pharmaceutically acceptable excipients. The tazarotene was tested in a set of compatibility screening studies with the excipients in closed vials containing tazarotene. The excipients physical mixture were incubated in ovens with and without moisture at 60° C. or 40° C./75% RH for 4 weeks.

- concentrations of the parent compound detected in plasma samples [1]: Very low concentrations
- excipient compatibility ([2]; with benzyl alcohol, lactic acid, polysorbate 80): incompatible
- excipient compatibility ([2]; with excipients of examples 1, 2, 3 (carbomer type A and B, cocobetaine, sodium lauryl sarcosinate, stearyl alcohol, cetyl alcohol, glycerine, vitamin E TPGS, gluconolactone, BHT, parabens)): compatible
SMILES: CCOC(=O)c1ccc(C#Cc2ccc3c(c2)C(C)(C)CCS3)nc1 [tazarotene, Tazarotene]
